≈ marks a conversion by molar mass, not a printed value.
Key:
[1] = biological target: T1, Phospho-N-acetylmuramoyl-pentapeptide-transferase (Staphylococcus aureus, UniProt P0C1R8); assay: Inhibition of Staphylococcus aureus MraY assessed as reduction of dansylated lipid I formation using UDP-MurNAcdansylpentapeptide as substrate incubated for 3 to 4 hrs by fluorescence based analysis
T1 sequence (P0C1R8 whole entry): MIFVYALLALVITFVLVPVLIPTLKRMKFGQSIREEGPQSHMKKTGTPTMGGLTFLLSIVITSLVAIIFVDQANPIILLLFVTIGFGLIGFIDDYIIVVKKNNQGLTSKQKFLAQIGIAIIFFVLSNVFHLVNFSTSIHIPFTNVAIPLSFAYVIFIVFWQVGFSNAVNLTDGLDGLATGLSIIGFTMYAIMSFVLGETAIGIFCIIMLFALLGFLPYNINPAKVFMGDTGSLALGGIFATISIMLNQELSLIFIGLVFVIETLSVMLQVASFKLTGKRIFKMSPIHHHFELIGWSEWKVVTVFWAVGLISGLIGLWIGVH

[2] = system: Mycobacteroides abscessus; assay: Antibacterial activity against Mycobacterium abscessus ATCC 19977 assessed as inhibition of bacterial growth incubated for 5 days by microplate reader analysis; assay type: functional; settings: ATCC 19977, 120 h, time 5 day

Compound | IC50 [1] | MIC50 [2]
C#C[C@H](O[C@@H]1O[C@H](CN)[C@@H](O)[C@H]1O)[C@H]1O[C@@H](n2ccc(=O)[nH]c2=O)[C@H](O)[C@@H]1O | 20 µM | > 32 µg/mL
NC[C@H]1O[C@@H](O[C@@H](C#Cc2ccccc2)[C@@]23CO[C@@H]([C@H](n4ccc(=O)[nH]c4=O)O2)[C@@H]3O)[C@H](O)[C@@H]1O | 37 µM | > 32 µg/mL
C#C[C@H](O[C@@H]1O[C@H](CN)[C@@H](O)[C@H]1O)[C@@]12CO[C@@H]([C@H](n3ccc(=O)[nH]c3=O)O1)[C@@H]2O | 24 µM | > 32 µg/mL
NC[C@H]1O[C@@H](OC[C@@]23CO[C@@H]([C@H](n4ccc(=O)[nH]c4=O)O2)[C@@H]3O)[C@H](O)[C@@H]1O | 46 µM | > 32 µg/mL
CC[C@H](O[C@@H]1O[C@H](CN)[C@@H](O)[C@H]1O)[C@@]12CO[C@@H]([C@H](n3ccc(=O)[nH]c3=O)O1)[C@@H]2O | 4.5 µM | 32 µg/mL (≈ 77 µM)
NC[C@H]1O[C@@H](O[C@@H](C#Cc2ccccc2)[C@H]2O[C@@H](n3ccc(=O)[nH]c3=O)[C@H](O)[C@@H]2O)[C@H](O)[C@@H]1O | 2.3 µM | > 32 µg/mL

— ChEMBL document CHEMBL5143692, “Design, synthesis and conformation-activity relationship analysis of LNA/BNA-type 5'-O-aminoribosyluridine as MraY inhibitors” (Bioorg Med Chem, 2022)
